Results from patent US20230137491A1, “PEPTIDES AND USES THEREOF” (SINTICA BIOTECH SOCIETÀ A RESPONSABILITÀ LIMITATA …, priority 2020, published 2023).
Non-standard residues stand in square brackets, D forms with d.

Legend:
[1] = system: CD271 expression in melanoma cell lines; test: CD271 protein expression by Western blotting and flow cytometry; type: cell-based, human; conditions: WM115, WM266-4 and SKMEL28, 1 to 2.5 mM, 48 h treatment
Description: FIG. 7. Chemotherapy up-regulates CD271 in primary and metastatic melanoma cell lines. (A) A real-time PCR using primers for intra- and extracellular CD271 receptor was performed on RNA extracts from three melanoma cell lines after treatment with carmustine (BCNU), cisplatin, dacarbazine (DTIC) or diluent. (B) Protein extracts from the three melanoma cell lines treated with different doses of cisplatin, carmustine, dacarbazine or diluent were separated on polyacrylamide gel and transferred onto nitrocellulose membranes. (C) Melanoma cell lines were treated with the chemotherapy or the diluent (see above) stained with anti CD271 mAb and analysed by flow cytometry.
FIG. 13. Non-steroid anti-inflammatory drugs (NSAID) enhance CD271 levels in melanoma cell lines. Three melanoma cell lines were treated with increasing doses of ketoprofen (A) or ibuprofen (B) and the percentage of CD271 positive cells was measured by flow cytometry.
Melanoma cell lines were treated with the chemotherapy or the diluent for 48 h, then were harvested and incubated with anti CD271 antibody (1:100 in PBS, Lab Vision Corporation, Thermo Fisher Scientific, Fremont, Calif., USA) for 20 min at 4° C. Cells were labeled with secondary antibody Alexa Fluor anti-mouse 488 (1:50, Thermo Fisher Scientific) for 20 min at 4° C. and analyzed with Epics XL flow cytometer (Beckman Coulter). […]

[2] = system: melanoma cell lines (WM115, WM266-4, SKmel28, WM793B, 1205Lu); test: MTT assay in melanoma cell lines; type: cell-based, human; conditions: for proliferation (MTT assay) with NSAID: WM115, WM266-4 and SKMEL28, increasing concentrations, 48 hrs
Description: 5×10^3 cells/well were seeded in 96-well culture plates. At different time points, cells were incubated with 0.5% MTT (3-(4,5-dimethylthiazol-2-yl)-2,5-diphenyltetrazolium bromide) for 4 h at 37° C. and then dissolved with 100 μl Isopropanol with 0.04N HCl. The plate was read at 560 nm with a reference filter of 650 nm. Results are expressed as viability percentage, as compared to control.
Five melanoma cell lines were used for testing the efficacy of XYZ or its non-PEGylated peptide component: WM115 and WM266-4, which are respectively the primary and metastatic melanoma derived from the same patient and expressing high levels of CD271, and SKme128, a metastatic melanoma cell line expressing low levels of CD271, WM793B, a primary melanoma, and 1205Lu derived from lung metastatic melanoma. The viability of the cell culture is assessed by MTT conversion. MTT solution is applied to the plates and placed into a cell culture incubator for 4 hours. The blue formazan metabolite produced by viable cells is then extracted into isopropanol and absorbance is measured at 570 nm using a spectrophotometer.

| Molecule | CD271 protein levels (percentage of CD271 positive cells, flow cytometry) [1] | proliferation (MTT assay) with NSAID [2] | cell proliferation (MTT assay) ([2]; five melanoma cell lines, 48 h and 96 h after treatment, no significant difference between PEGylated and non-PEGylated form) |
| --- | --- | --- | --- |
| CC(C)Cc1ccc(C(C)C(=O)O)cc1 (centres unmarked) [ibuprofen, reference compound] | increased CD271 protein levels | dose-dependently decreases proliferation |  |
| CC(C(=O)O)c1cccc(C(=O)c2ccccc2)c1 (centres unmarked) [ketoprofen, reference compound] | increased CD271 protein levels | dose-dependently decreases proliferation |  |
| Ac-[dM][dL]G[dI][dI][dA]G[dK][dN][dS]G-NH2 [non-PEGylated peptide] |  |  | reduce cell proliferation |
